Results published in the NIST ThermoML archive (doi:10.1016/j.fluid.2013.06.038).
Numbers after ± are expanded uncertainties.

Settings: Crystal; visual observation

Question: Which Normal melting temperature does the source give for `CC=CC(=O)O` [2-butenoic acid] here?
Answer: The Normal melting temperature was 71.7 ± 1.1 °C.
